Tested on: CK enzyme expressed in the tumor
Experiment: In vivo CEST imaging of creatine kinase expression in tumor after tail vein injection of PCr
Conditions: 60 minutes post infusion (tail vein injection of PCr) vs base line CEST map, FIG. 3
Procedure: In certain embodiments, the radio frequency (RF) pulse can be provided at different frequency offsets. In certain embodiments, to detect the conversion of phosphocreatine to creatine, an RF pulse was applied at a frequency offset of about 1.8 ppm for a period of about 1 to about 3 seconds.
“b” is the base line CEST map from the same slice. “c” is a CEST map of the same slice at 60 minutes following tail vein injection of PCr.

CN(CC(=O)O)C(=N)NP(=O)(O)O [PCr, phosphocreatine]
increase in CEST contrast: about 11%

Reference: US20170184695A1, “IMAGING OF CREATINE KINASE ENZYME EXPRESSION IN CANCEROUS TISSUES” (Sidra Medical and Research Center, priority 2014, published 2017)
